Biological target: T1, recombinant human FAAH (rhFAAH) (Homo sapiens, UniProt O00519)
T1 construct: purchased Cayman Chemical (Ann Arbor, Mich., USA)
T1 sequence (O00519 1-579): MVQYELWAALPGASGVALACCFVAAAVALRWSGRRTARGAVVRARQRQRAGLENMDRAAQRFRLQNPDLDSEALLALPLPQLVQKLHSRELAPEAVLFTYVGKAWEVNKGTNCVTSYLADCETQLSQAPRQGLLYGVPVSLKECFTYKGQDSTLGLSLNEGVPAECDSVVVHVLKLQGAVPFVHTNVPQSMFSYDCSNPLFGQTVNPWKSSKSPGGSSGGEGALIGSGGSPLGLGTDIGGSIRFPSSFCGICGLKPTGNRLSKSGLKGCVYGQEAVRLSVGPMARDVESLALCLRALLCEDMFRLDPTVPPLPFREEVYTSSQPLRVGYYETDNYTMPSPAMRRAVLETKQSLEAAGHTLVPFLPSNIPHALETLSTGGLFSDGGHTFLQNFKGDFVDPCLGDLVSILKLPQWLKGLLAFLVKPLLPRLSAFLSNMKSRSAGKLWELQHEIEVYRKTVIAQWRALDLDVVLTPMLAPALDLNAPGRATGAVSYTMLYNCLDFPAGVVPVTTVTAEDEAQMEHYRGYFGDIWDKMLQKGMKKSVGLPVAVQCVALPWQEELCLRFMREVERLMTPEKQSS
Assay: FAAH substrate evaluation (formation of acid metabolite, LC-MS/MS)
Assay type: in vitro ADME
Settings: 0.5 ng/μL rhFAAH, 1 μM test compound, pH 8.0, room temperature, 0-60 minutes
Experimental: Purified recombinant human FAAH (rhFAAH) was purchased from Cayman Chemical (Ann Arbor, Mich., USA). The total volume for each incubation was 400 μL containing a final 0.5 ng/μL rhFAAH, 1 μM test compound, 1.25% ethanol or 1 μM PF-3845 (FAAH inhibitor), and 0.1% bovine serum albumin in Tris-EDTA buffer at pH 8.0). The positive control was LL-341001. The incubation was conducted at the room temperature. At 0, 5, 15, 30 and 60 minutes, an aliquot of 30 μL reaction mixtures was removed and mixed with 300 μL acetonitrile containing 5 ng/mL terfenadine and 10 ng/mL tolbutamide as internal standards to quench the reaction. The resulting mixture was centrifuged at 4000 rpm, 4° C. for 15 minutes, and 100 μL supernatant was ready for LC-MS/MS analysis to measure the formation of acid metabolite.
Acquity Ultra Performance LC system from Waters was used for sample analysis. The chromatography was performed on a reverse phase Kinetex 2.6 μm C18 column, 2.1×30 mm, 100 Å. The mobile phase A comprised of 0.10% formic acid in water and mobile phase B comprised of 0.1% formic acid in acetonitrile with a 2-min run time at the flow rate of 0.8 mL/min for the acid metabolite from positive control or a 1.5 min run time at the flow rate of 0.9 mL/min for the acid metabolite of test compounds. The mass spectrometer (API-5500 and API Q Trap 4000 Applied Biosystems/MDS SCIEX Instruments, Framingham, Mass., USA) was operated under ESI positive or negative ion MRM mode.
The formation of acid metabolite was monitored and quantified using one calibration point of 1 μM. The observed rate constant (ke) for the acid metabolite formation was calculated by plotting the metabolite concentration versus time of incubation with the slope being ke and is shown in Table 4.

SMILES	ke, observed rate constant for the acid metabolite formation
CNC(=O)COc1ccc(Cc2ccc(O)c(C(C)C)c2F)c(C(C)C)c1 [Compound 43, 2-(4-(2-fluoro-4-hydroxy-3-isopropylbenzyl)-3-isopropylphenoxy)-N-methylacetamide]	A (A = ke is less than 2.0 and more than or equal to 0.05)
CNC(=O)COc1cc(C(C)C)c(Cc2ccc(O)c(C(C)C)c2)cc1F [Compound 47, 2-(2-fluoro-4-(4-hydroxy-3-isopropylbenzyl)-5-isopropylphenoxy)-N-methylacetamide]	A (A = ke is less than 2.0 and more than or equal to 0.05)
CC(C)c1cc(Cc2cc(F)c(OCC(=O)N(C)C)cc2C(C)C)ccc1O [Compound 48, 2-(2-fluoro-4-(4-hydroxy-3-isopropylbenzyl)-5-isopropylphenoxy)-N,N-dimethylacetamide]	A (A = ke is less than 2.0 and more than or equal to 0.05)

Reference: US20230242473A1, “THYROMIMETICS” (Autobahn Therapeutics, Inc., priority 2020, published 2023)
